Legend:
[1] = Locomotion test in naive macaques without viral injection; assay type: in vivo; details: DCZ 0.3 mg/kg i.m., FIG. 35A-35G
[2] = biological target: T1, rM3Ds (Rattus norvegicus, UniProt P08483, A177S/A238G/A489L/DEL261-437/DEL441-478/E258S/I253V/I483M/INS256[…]/K178L/K182A/K255R/K484R/K486H/L173F/L482A/M480V/R171S/R176Q/R179M/S481M/T174R/T181R/T257A/Y148C)
T1 sequence (P08483 with tags, fused parts or gaps Y148C/R171S/L173F/T174R/R176Q/A177S/K178L/R179M/T181R/K182A/A238G/I253V/K255R/INS256[…]/T257A/E258S/DEL261-437/DEL441-478/M480V/S481M/L482A/I483M/K484R/K486H/A489L): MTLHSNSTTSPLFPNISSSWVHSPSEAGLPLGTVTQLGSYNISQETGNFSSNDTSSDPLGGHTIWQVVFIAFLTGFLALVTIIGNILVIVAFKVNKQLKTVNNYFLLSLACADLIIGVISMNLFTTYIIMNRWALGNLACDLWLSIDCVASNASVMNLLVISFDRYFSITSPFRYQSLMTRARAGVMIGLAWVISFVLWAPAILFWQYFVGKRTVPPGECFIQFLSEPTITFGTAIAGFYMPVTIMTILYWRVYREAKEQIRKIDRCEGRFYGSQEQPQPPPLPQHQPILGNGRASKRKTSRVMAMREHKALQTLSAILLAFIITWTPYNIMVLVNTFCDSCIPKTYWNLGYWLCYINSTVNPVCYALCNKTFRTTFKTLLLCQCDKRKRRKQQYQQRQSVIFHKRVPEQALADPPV
Description: Monkeys were continuously monitored by veterinarians after lesion.
Dyskinesia score criteria were: 0: Absent. 1: Mild, fleeting, present <30% of the observation period.
Each block included ten continuous trials.
Customized surface EMG electrodes were used for EMG recordings. […] The recording procedure was conducted immediately after DCZ infusions.

[3] = CSF concentration of DCZ by LC-MS; assay type: in vivo, macaques; details: 24 hours after drug infusion, 0.3 mg/kg i.m., FIG. 24D
From the text: One month of washout was allowed before administration of DCZ.

[4] = Blood test of liver- and kidney-related factors during DCZ treatment; assay type: in vivo, macaques; details: FIG. 36B-36F
From the text: FIG. 36A-36F depict effects of D1-MSN activation on dyskinesia-like behavior and health state-related blood factors in parkinsonian macaques. FIG. 36A illustrates quantitation of dyskinesia score at 2 months, 4 months, and 8 months after treatment with DCZ. n=3 monkeys per group.

[5] = biological target: T1, rM3Ds; assay: In vivo electrophysiological recording in caudate/putamen of MPP+ lesioned macaques; parameters: rM3Ds; 2A-EYFP (C); host or cells: AAV8R12-transduced striatal D1-MSNs of mice and cynomolgus macaques (in vivo and acute slices)
Description: Electrophysiological recording was performed through a recording chamber while the monkey was anesthetized. Neural responses were recorded by a 16-channel linear probe (Plexon Inc, Uprobe) driven by a mechanical microdrive (Alpha Omega, FlexMT). Signals were passed through a head stage (Plexon Inc, HST/16V-G20 LN) and then split and filtered between 300 Hz and 5 kHz to identify spiking activity with an amplifier system (Plexon Inc, OmniPlex). Detected spikes were then sorted by commercially available software (Plexon Inc, Offline Sorter) for further analysis. To quantify the effect of CNO/DCZ injection, neural activity was recorded for 60 minutes following CNO/DCZ injection. The response time-course for each channel was obtained by counting the spikes within every 10-minute window and then normalizing to the maximal.
To determine the effect of CNO/DCZ injection on the direction of signal change, we performed Pearson correlation between neural responses and time using the ‘corr’ function in Matlab, which generates the correlation coefficient ‘r’ and significant level ‘p’. A neuron was considered to have “Increased” activity when r>0 and p<0.05; and considered to have “Decreased” activity when r<0 and p<0.05. Otherwise, neurons were considered to be “Unchanged” in their neural activities. The responses of all increased neurons were then averaged after being normalized by the maximal response (Crowe et al., 2014; Dai and Wang, 2018; Hirokawa et al., 2019) following CNO/DCZ injection, and then plotted as a function of time to generate the normalized population response.

Which “motor-related behaviors in naïve monkeys” value [1] does the source give for `CN1CCN(C2=Nc3ccccc3Nc3ccccc32)CC1` [DCZ, deschloroclozapine] here?
The value was “did not alter motor-related behaviors”.

And the “efficacy after extended prior L-Dopa administration” value ([2]; 4 months prior L-Dopa, 1 month washout, FIG. 24F-24L)?
The value was “did not affect the efficacy of DCZ treatment or the absence of dyskinesia”.

What about the “alleviation of parkinsonian symptoms over long-term treatment” value ([2]; 8-month continuous treatment with DCZ) of the same compound?
The value was “appeared to be consistent”.

And the “motor skills” value ([2]; DCZ, hand to mouth movement)?
Its value is “a significant recovery of motor skills”.

What about the “alleviation of symptoms after each dose at steady-state efficacy” value ([2]; FIG. 24C) of the same compound?
Its value is “at least 24 hours”.

And the “parkinsonian symptoms” value ([2]; MPP+ macaques with AAV8R12-G88P7-rM3Ds-2A-EYFP, DCZ 0.3 mg/kg i.m., L-Dopa/benserazide 20/5 mg/kg/day oral)?
The value was “a reversal of canonical parkinsonian symptoms in all tested monkeys”.

What about the “tremor” value ([2]; after DCZ treatment, EMG) of the same compound?
The value was “great reduced or even eliminated”.

And the “speed of reversal of symptoms” value ([2]; initial phase of drug administration, FIG. 24B)?
The value was “faster reversal of symptoms than levodopa”.

What about the “dyskinesia” value ([2]; long-term treatment) of the same compound?
The value was “dyskinesia-free”.

And the “duration of effect (FIG. 18C)” value ([2]; n=3 monkeys)?
Its value is “over 24 hr”.

And the “spontaneous movement in an observation cage” value ([2]; systemic DCZ)?
Its value is “an increase in spontaneous movement”.

What about the “DCZ levels in cerebrospinal fluid” value [3] of the same compound?
The value was “no detectable levels”.

What about the “blood levels of common liver- and kidney-related factors (ALT, AST, GGT, CREA, BUN)” value [4] of the same compound?
Its value is “remained stable”.

And the “caudate/putamen cells activated (FIG. 15G)” value ([5]; CNO 36 cells, DCZ 31 cells, saline 17.9%)?
The value was 41.9%.

And the “caudate/putamen cells inactivated (FIG. 15G)” value ([5]; saline 33.4%)?
The value was 9.7%.

What about the “caudate/putamen cells unchanged (FIG. 15G)” value ([5]; saline 48.7%) of the same compound?
Its value is 48.4%.

From US20250381307A1, “RETRO-AAV AND USE IN TREATING NEURODEGENERATIVE DISEASES” (priority 2023, published 2025)
